Assay results as given in patent publication US20260365677A1, “NEW CONTRAST AGENTS FOR USE IN DIAGNOSTIC IMAGING” (Bayer Aktiengesellschaft, priority 2022, published 2026).

Assays:
[1] = Exploratory water solubility in 10 mM Tris-HCl buffer, pH 7.4; assay type: physicochemical; details: aqueous buffer (10 mM Tris-HCl), 20 °C
Protocol: The exploratory water solubility of the compounds is determined at room temperature (20 °C) in 0.5 mL buffer solution (10 mM Tris-HCl, pH 7.4) in the microcentrifuge tubes (Eppendorf, 2.0 mL safe-lock caps). The solid compounds were added stepwise to the buffer solution. More substance is added once all the suspended material is dissolved until an equilibrium between undissolved and dissolved substance is reached. The suspension was mixed using a shaker (Heidolph Reax 2000) and treated 5 min in an ultrasound bath (Bandelin, Sonorex Super RK255H). The Gadolinium concentration of the test substance in the clear solution is measured by ICP-MS.

OATP1B1 = biological target: T1, OATP1B1 (Homo sapiens, UniProt Q9Y6L6); test: Uptake into stable transfected OATP1B1 HEK 293 cells; assay type: cell-based; details: 100 μM, 40 min, relative to RC1 (Gd-EOB-DTPA)
T1 construct: expressed in transfected cells
T1 sequence (Q9Y6L6 1-691): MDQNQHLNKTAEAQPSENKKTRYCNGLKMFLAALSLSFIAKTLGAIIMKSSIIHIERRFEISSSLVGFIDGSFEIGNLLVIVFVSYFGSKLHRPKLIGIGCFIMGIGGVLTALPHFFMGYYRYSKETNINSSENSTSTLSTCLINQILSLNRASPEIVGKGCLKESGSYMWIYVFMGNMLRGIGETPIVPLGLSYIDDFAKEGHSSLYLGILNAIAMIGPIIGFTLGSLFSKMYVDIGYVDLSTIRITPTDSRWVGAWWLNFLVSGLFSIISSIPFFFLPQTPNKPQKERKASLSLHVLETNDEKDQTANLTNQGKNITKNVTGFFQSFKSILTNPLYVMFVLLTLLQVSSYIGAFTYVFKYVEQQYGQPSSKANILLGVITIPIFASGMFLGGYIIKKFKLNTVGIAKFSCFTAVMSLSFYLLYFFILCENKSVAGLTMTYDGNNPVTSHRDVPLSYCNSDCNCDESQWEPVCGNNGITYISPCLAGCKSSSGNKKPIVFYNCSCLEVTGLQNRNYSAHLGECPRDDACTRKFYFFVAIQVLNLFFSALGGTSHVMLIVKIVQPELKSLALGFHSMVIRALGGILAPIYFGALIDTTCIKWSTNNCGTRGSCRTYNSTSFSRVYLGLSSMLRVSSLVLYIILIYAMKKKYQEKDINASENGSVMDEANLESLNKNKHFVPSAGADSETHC
Protocol: Human stable transfected OATP1 B1 human embryonic kidney 293 cells (OATP1 B1 HEK 293, SLCO1B1, Entrez Gene ID: 10599) were used (Leonhardt M et al. Drug Metab Dispos. 2010 July; 38(7):1024-8). The following culture medium was used: 500 mL DMEM (Dulbecco's Modified Eagle Medium—high Glucose, D6429), 50 mL FCS (fetal bovine serum, Fa. Sigma, F7524), 5.8 mL G418 (Geneticin, Fa. Gibco 10131-027) and 5 mL Pen-Strep. (Penicillin-Streptomycin, Fa. Gibco, Ref 15140-122). Cryopreserved cells were shortly thawed in water bath and diluted in 10 mL warm culture medium (37 °C). After medium change the cells were grown for 3d in a 25 cm^2 cell culture flask. After 3 to 5d the cells were transferred into 75 cm^2 flasks. For the splitting the cells were incubated with 1.5 mL trypsin (Trypsin-EDTA (1×) 0.05%, Ref 25300-054 100 ml, Fa. Gibco) for 3-5 min in the incubator (37 °C, 5% CO2 and 95% oxygen). After centrifugation and washing with medium the cells were counted (50 μL cell suspension and 50 μL trypan blue (Trypan Blue Solution, 93595-50 ml, Fa. Fluka). Cells were cultured (1×10^5 cells/well) in poly-D-lysine coated 24-well plates (Fa. Corning, Ref: 354414) in 1.5 mL medium per well. After 48 h in the incubator the medium was changed and 1.5 mL/well sodium butyrate containing medium were added (40 mL culture medium plus 400 μL Na-Butyrate, Fa. Sigma Aldrich B5887-5G, 250 mg in 2.27 mL MilliQ water). After 24 h in the incubator the medium was vacuumed off and 1.5 mL transport buffer was added and incubated for 10 min. The transport buffer contains the following ingredients: 500 mL HBSS (Hank's balanced salt solution, Hyclone, SH30268.01), 5 mL HEPES buffer (4-(2-hydroxyethyl)-1-piperazine-ethanesulfonic acid, Gibco 15630-056) and 3.9 mL glucose (Sigma, G8270-100, 90 g/200 mL MilliQ water). All test items were prepared in transport buffer at a final concentration of 100 μM from stock solutions (180 to 500 mM concentration). The OATP1B1 HEK 293 cells were incubated with test solutions (test item in transport buffer 500 μL) for 40 min on a thermoshaker without shaking (PHMP, Fa. Grant Bio). Triplicates were performed for each test item. After incubation the cells were washed with 2 mL of cold PBS (+) buffer (Dulbeccos PBS+, Fa. Gibco). […] As a reference standard Gd-EOB-DTPA (gadoxetate) is used in the same well plate. The OATP1B1 HEK 293 uptake of the test compound is calculated relative to gadoxetate (resulting in the unit % of RC1).

[2] = No-observed-adverse-effect level (NOAEL) in mice; details: intravenous bolus injection

Row | SMILES | Solubility [1] | Uptake into OATP1B1-HEK 293 cells (OATP1B1) | NOAEL [2]
1 | CCOc1ccc(CC2CN(CC(=O)[O-])CCN(CC(=O)[O-])CCN(CC(=O)O)CCN2CC(=O)[O-])cc1.[Gd+3] (centres unmarked) [Example 7, Gadolinium-2,2′,2″-[10-(carboxymethyl)-2-(4-ethoxybenzyl)-1,4,7,10-tetraazacyclododecane-1,4,7-triyl]triacetate] | >403 mM | 103 % of RC1 | 1.50 mmol Gd/kg bw
2 | CCOCCOCCOCCOc1ccc(C[C@H]2CN(CC(=O)[O-])CCN(CC(=O)[O-])CCN(CC(=O)O)CCN2CC(=O)[O-])cc1.[Gd+3] [Example 5, Gadolinium-2,2′,2″-[(2S)-10-(carboxymethyl)-2-(4-{2-[2-(2-ethoxyethoxy)ethoxy]ethoxy}benzyl)-1,4,7,10-tetraazacyclododecane-1,4,7-triyl]triacetate] | >284 mM | 78 % of RC1 | –
3 | CCOc1ccc(C[C@H]2CN(CC(=O)[O-])CCN(CC(=O)[O-])CCN(CC(=O)O)CCN2CC(=O)[O-])cc1.[Gd+3] (single isomer, unassigned; stereoisomer 1) [Example 10] | >23 mM | 212 % of RC1 | –
4 | CCCCOc1ccc(C[C@H]2CN(CC(=O)[O-])CCN(CC(=O)[O-])CCN(CC(=O)O)CCN2CC(=O)[O-])cc1.[Gd+3] (single isomer, unassigned; stereoisomer 1) [Example 12] | 211 mM | 119 % of RC1 | –
5 | COCCOCCOCCOc1ccc(C[C@H]2CN(CC(=O)[O-])CCN(CC(=O)[O-])CCN(CC(=O)O)CCN2CC(=O)[O-])cc1.[Gd+3] [Example 1, Gadolinium-2,2′,2″-[(2S)-10-(carboxymethyl)-2-(4-{2-[2-(2-methoxyethoxy)-ethoxy]ethoxy}benzyl)-1,4,7,10-tetraazacyclododecane-1,4,7-triyl]triacetate] | >201 mM | 143 % of RC1 | –
6 | CCCCOc1ccc(C[C@H]2CN(CC(=O)[O-])CCN(CC(=O)[O-])CCN(CC(=O)O)CCN2CC(=O)[O-])cc1.[Gd+3] (single isomer, unassigned; stereoisomer 2) [Example 13] | >43 mM | 847 % of RC1 | –
7 | COCCOCCOCCOc1ccc(C[C@@H]2CN(CC(=O)[O-])CCN(CC(=O)[O-])CCN(CC(=O)O)CCN2CC(=O)[O-])cc1.[Gd+3] [Example 3, Gadolinium-2,2′,2″-[(2R)-10-(carboxymethyl)-2-(4-{2-[2-(2-methoxyethoxy)ethoxy]ethoxy}benzyl)-1,4,7,10-tetraazacyclododecane-1,4,7-triyl]triacetate] | >166 mM | 120 % of RC1 | –
8 | CCOc1ccc(C[C@H]2CN(CC(=O)[O-])CCN(CC(=O)[O-])CCN(CC(=O)O)CCN2CC(=O)[O-])cc1.[Gd+3] (single isomer, unassigned; stereoisomer 2) [Example 11] | >146 mM | 96 % of RC1 | –
9 | CCOc1ccc(CC2CN(CC(=O)[O-])CCN(CC(=O)[O-])CCN(CC(=O)O)CCN2CC(=O)[O-])cc1.[Gd+3] (single isomer, unassigned; diastereomer 2) [Example 9, Gadolinium-2,2′,2″-[10-(carboxymethyl)-2-(4-ethoxybenzyl)-1,4,7,10-tetraazacyclododecane-1,4,7-triyl]triacetate (racemic diastereomer 2)] | >145 mM | 60 % of RC1 | –
10 | CCOc1ccc(CC2CN(CC(=O)[O-])CCN(CC(=O)[O-])CCN(CC(=O)O)CCN2CC(=O)[O-])cc1.[Gd+3] (single isomer, unassigned; diastereomer 1) [Example 8, Gadolinium-2,2′,2″-[10-(carboxymethyl)-2-(4-ethoxybenzyl)-1,4,7,10-tetraazacyclododecane-1,4,7-triyl]triacetate (racemic diastereomer 1)] | – | 208 % of RC1 | –
11 | CCOCCOCCOc1ccc(C[C@H]2CN(CC(=O)[O-])CCN(CC(=O)[O-])CCN(CC(=O)O)CCN2CC(=O)[O-])cc1.[Gd+3] [Example 2, Gadolinium-2,2′,2″-[(2S)-10-(carboxymethyl)-2-{4-[2-(2-ethoxyethoxy)ethoxy]benzyl}-1,4,7,10-tetraazacyclododecane-1,4,7-triyl]triacetate] | >55 mM | 282 % of RC1 | –
12 | CCOCCOc1ccc(C[C@H]2CN(CC(=O)[O-])CCN(CC(=O)[O-])CCN(CC(=O)O)CCN2CC(=O)[O-])cc1.[Gd+3] [Example 4, Gadolinium-2,2′,2″-{(2S)-10-(carboxymethyl)-2-[4-(2-ethoxyethoxy)benzyl]-1,4,7,10-tetraazacyclododecane-1,4,7-triyl}triacetate] | >738 mM | 65 % of RC1 | 2.50 mmol Gd/kg bw
13 | CCOCCOCCOc1ccc(C[C@H]2CN(CC(=O)[O-])CCN(CC(=O)[O-])CCN(CC(=O)O)CCN2CC(=O)[O-])nc1.[Gd+3] [Example 6, Gadolinium 2,2′,2″-[(2S)-10-(carboxymethyl)-2-({5-[2-(2-ethoxyethoxy)ethoxy]pyridin-2-yl}methyl)-1,4,7,10-tetraazacyclododecane-1,4,7-triyl]triacetate] | – | 174 % of RC1 | –
